Test results published in patent EP4691487A1, “METHOD FOR INCREASING CONCENTRATION OF MACROMOLECULAR DRUG IN TUMOR TISSUE” (priority 2023, dated 2024).

Key:
[1] = tested on: human pancreatic cancer PC-07-0067 model; test: Anti-tumor efficacy in pancreatic cancer PC-07-0067 subcutaneous xenograft (PDX) model (Example 4); assay type: in vivo, BALB/c nude mice; conditions: TRODELVY 3 mg/kg IV BIW
From the text: Establishment of PDX model: The human pancreatic cancer PC-07-0067 model was initially established from a surgically resected clinical sample, which was designated as P0 after being inoculated into nude mice. Inoculation of tumor tissue from P0 into the next generation of mice is referred to as P1, and so on for subsequent serial passages in nude mice. FP3 tumors were resuscitated from P2 generation tissue, and the next generation from FP3 was designated as FP4, and so on.
Tumor Inoculation: A 20-30 mm^3 PC-07-0067 FP5 tumor tissue piece was subcutaneously inoculated on the right flank of each mouse for tumor growth. The mice were randomized for dosing when the mean tumor volume reached approximately 100-150 mm^3.
Experimental indicator: The experimental indicator is to examine whether tumor growth is inhibited, delayed or cured. Tumor diameter is measured with a vernier caliper twice a week. The formula for calculating tumor volume is: V = 0.5a × b^2, a and b represent the long diameter and short diameter of the tumor, respectively.
The anti-tumor efficacy of a compound is evaluated using the TGI(%) or tumor proliferation rate (T/C)(%). TGI(%) reflects the rate of tumor growth inhibition.
Tumor proliferation rate T/C (%): The calculation formula is as follows: T/C(%) = Ti/Vi × 100 %, wherein Vi is the mean tumor volume of the solvent control group at a certain measurement, and Ti is the mean tumor volume of the dosing group at the same measurement.

PC-07-006 model = test: Anti-human IgG secondary antibody staining of TRODELVY bound to tumor cells in vivo (Example 5); design: species or system BALB/c nude mice; conditions: tissue samples from Example 4
From the text: The experimental method was the same as in Example 3. The experimental tissue samples were from Example 4. The anti-human IgG secondary antibody was able to recognize the binding of TRODELVY to tumor cells in vivo. […] Example 6: In vivo pharmacological study of the tumor infiltration level of test article, fluorescein Cy5.5-labeled Hanquyou( ? ) antibody (H-Cy5.5), in a subcutaneous xenograft tumor model of human gastric cancer NCI-N87 cells in Balb/c-nude mice after administration of IN10018

## TRODELVY
[1]; after 14 days of dosing, T/C = Ti/Vi, IN10018 12.5 mg/kg PO QD
  T/C: 27.95%
[1]; after 14 days of dosing, IN10018 12.5 mg/kg PO QD
  TGI: 78.91%
[1]; day 14, IN10018 12.5 mg/kg PO QD (tartrate salt weighed)
  mean tumor volumes: 423 mm^3
PC-07-006 model
  antibody-tumor cell binding: significant antibody-tumor cell binding
